Results reported in ChEMBL document CHEMBL4622849, “Discovery of ethyl ketone-based HDACs 1, 2, and 3 selective inhibitors for HIV latency reactivation” (Bioorg Med Chem Lett, 2020).

What was measured:
[1] = system: Human immunodeficiency virus; test: microbe, parasite or virus in culture; format: functional, organism-based; details: Human immunodeficiency virus 1, 2C4
[2] = system: Human immunodeficiency virus; test: microbe, parasite or virus in culture; format: functional, organism-based; details: Human immunodeficiency virus 1, 2C4; remark: listed apart in the source
Description: Reactivation of HIV latency infected in human 2C4 cells in presence of 0.1 % NHS by luciferase reporter gene assay

Compound: CCC(=O)CCCCC[C@H](NC(=O)[C@H]1CC12CCOCC2)c1ncc(-c2cc3ccccc3nc2OC)[nH]1
- EC50 [1]: 1790 nM
- EC50 [2]: 234 nM

Compound: CCC(=O)CCCCC[C@H](NC(=O)C1CCC2(CC1)CN(C)C2)c1ncc(-c2cc3ccccc3nc2OC)[nH]1
- EC50 [1]: 687 nM
- EC50 [2]: 85 nM

Compound: CCC(=O)CCCCC[C@H](NC(=O)[C@H]1CC12CCN(CC1CC1)CC2)c1ncc(-c2cc3ccccc3nc2OC)[nH]1
- EC50 [1]: 30 nM
- EC50 [2]: 15 nM

Compound: CCC(=O)CCCCC[C@H](NC(=O)[C@H]1C[C@]12CCN(C)C2)c1ncc(-c2cc3ccccc3nc2OC)[nH]1
- EC50 [1]: 232 nM
- EC50 [2]: 72 nM

Compound: CCC(=O)CCCCC[C@H](NC(=O)[C@H]1CC12CCN(Cc1ccccc1)CC2)c1ncc(-c2cc3ccccc3nc2OC)[nH]1
- EC50 [1]: 175 nM
- EC50 [2]: 74 nM

Compound: CCC(=O)CCCCC[C@H](NC(=O)C1CC2(C1)CN(C)C2)c1ncc(-c2cc3ccccc3nc2OC)[nH]1
- EC50 [1]: 840 nM
- EC50 [2]: 130 nM

Compound: CCC(=O)CCCCC[C@H](NC(=O)[C@H]1CC12CCCN(C)C2)c1ncc(-c2cc3ccccc3nc2OC)[nH]1 (some centres not stated)
- EC50 [1]: 324 nM
- EC50 [2]: 81 nM

Compound: CCC(=O)CCCCC[C@H](NC(=O)[C@H]1CC12CCN(Cc1ccc(OC)cc1)CC2)c1ncc(-c2cc3ccccc3nc2OC)[nH]1
- EC50 [1]: 180 nM
- EC50 [2]: 113 nM

Compound: CCC(=O)CCCCC[C@H](NC(=O)[C@@H]1C[C@@]12CCN(C)C2)c1ncc(-c2cc3ccccc3nc2OC)[nH]1
- EC50 [1]: 1150 nM
- EC50 [2]: 309 nM

Compound: CCC(=O)CCCCC[C@H](NC(=O)[C@@H]1CC12CCOCC2)c1ncc(-c2cc3ccccc3nc2OC)[nH]1
- EC50 [1]: 5040 nM
- EC50 [2]: 647 nM

Compound: CCC(=O)CCCCC[C@H](NC(=O)[C@H]1CC12CCN(CC(F)(F)F)CC2)c1ncc(-c2cc3ccccc3nc2OC)[nH]1
- EC50 [1]: 719 nM
- EC50 [2]: 112 nM

Compound: CCC(=O)CCCCC[C@H](NC(=O)C1CN(C)C1)c1ncc(-c2cc3ccccc3nc2OC)[nH]1
- EC50 [1]: 477 nM
- EC50 [2]: 110 nM

Compound: CCC(=O)CCCCC[C@H](NC(=O)[C@H]1CC12CCN(CCC(F)(F)F)CC2)c1ncc(-c2cc3ccccc3nc2OC)[nH]1
- EC50 [1]: 343 nM
- EC50 [2]: 78 nM

Compound: CCC(=O)CCCCC[C@H](NC(=O)[C@@H]1CC12CN(C)C2)c1ncc(-c2cc3ccccc3nc2OC)[nH]1
- EC50 [1]: 287 nM
- EC50 [2]: 74 nM

Compound: CCC(=O)CCCCC[C@H](NC(=O)[C@@H]1CC12CCCN(C)C2)c1ncc(-c2cc3ccccc3nc2OC)[nH]1 (some centres not stated)
- EC50 [1]: 1010 nM
- EC50 [2]: 257 nM

Compound: CCC(=O)CCCCC[C@H](NC(=O)[C@H]1CCC12CCN(CC)CC2)c1ncc(-c2cc3ccccc3nc2OC)[nH]1
- EC50 [1]: 110 nM
- EC50 [2]: 43 nM

Compound: CCC(=O)CCCCC[C@H](NC(=O)[C@@H]1CC12CCN(C)CC2)c1ncc(-c2cc3ccccc3nc2OC)[nH]1
- EC50 [1]: 1370 nM
- EC50 [2]: 339 nM

Compound: CCC(=O)CCCCC[C@H](NC(=O)[C@H]1CC12CCN(C(C)C)CC2)c1ncc(-c2cc3ccccc3nc2OC)[nH]1
- EC50 [1]: 57 nM
- EC50 [2]: 32 nM

Compound: CCC(=O)CCCCC[C@H](NC(=O)[C@H]1CC12CCN(Cc1cccnc1)CC2)c1ncc(-c2cc3ccccc3nc2OC)[nH]1
- EC50 [1]: 277 nM
- EC50 [2]: 62 nM

Compound: CCC(=O)CCCCC[C@H](NC(=O)[C@H]1C[C@@]12CCN(C)C2)c1ncc(-c2cc3ccccc3nc2OC)[nH]1
- EC50 [1]: 321 nM
- EC50 [2]: 73 nM

Compound: CCCN1CCC2(CC1)C[C@@H]2C(=O)N[C@@H](CCCCCC(=O)CC)c1ncc(-c2cc3ccccc3nc2OC)[nH]1
- EC50 [1]: 895 nM
- EC50 [2]: 154 nM
